Measured values: patent US7906554B2, “Combination chemotherapy compositions and methods” (Novogen Research Pty Ltd, priority 2002, dated 2011)
Like-named read-outs stand apart in the source and are kept apart here. Each block holds one compound with its values, some of them ahead of it.

Experiments:
[1] = system: ovarian cancer cells isolated from ascites and ovarian cancer cell lines CP70 and A2780; assay: Cell viability (CellTiter) of ovarian cancer cells with or without dehydroequol pre-treatment; format: cell-based
Protocol: (§1) The in vitro studies were performed using ovarian cancer cells isolated from ascites using an immunomagnetic assay and established ovarian cancer cell lines CP70 and A2780. Cell viability was determined using CellTiter©. Apoptosis was evaluated using Hoechst 33342 dye. The in vivo effect was tested by injecting CP70 subcutaneously into nude mice. Animals received daily oral administration of dehydroequol, 10 or 20 mg/kg for 8 days alone or in combination with cisplatin 0.5 mg/kg. After 8 days the animals were sacrificed and the tumour volume was measured.

[2] = system: carboplatin and paclitaxel resistant cells; assay: Decrease in cell viability in chemoresistant cells; format: cell-based
Protocol: as §1

caspase 3 = assay: Western blot analysis of resistant ovarian cancer cells; format: cell-based; conditions: chemoresistant cells, only after pre-treatment with dehydroequol (FIG. 5)
Source text: FIG. 5 represents a Western Blot analysis of carboplatin or paclitaxel treatment resistant ovarian cancer CP70 cells with and without dehydroequol pre-treatment.
Additionally, the active form of caspase 3 in chemoresistant cells was not detected.

HPAC = assay: Cell viability (CellTiter), concurrent dehydroequol and cisplatin; format: cell-based
Protocol: (§2) The effect of a composition comprising the platinum complex cisplatin and the isoflavonoid compound dehydroequol (compound No. 12) on various cancer cell lines was assessed on culture plates. Cell viability was determined using CellTiter©. Apoptosis was evaluated using Hoechst 33342 dye.

DU145 = assay: as above; format: cell-based
Protocol: as §2

A2780 = assay: as above; format: cell-based
Protocol: as §2

PC3 = assay: as above; format: cell-based
Protocol: as §2

CP70 [3] = assay: as above; format: cell-based
Protocol: as §2

[4] = system: paclitaxel resistant cell line, R182; assay: Cell viability (CellTiter), paclitaxel resistant cell line; format: cell-based; conditions: R182, no pre-treatment (FIG. 2)
Protocol: as §1

CP70 [5] = assay: In vivo CP70 tumour injected subcutaneously into nude mice; conditions: cisplatin 0.5 mg/kg alone
Protocol: as §1

Compound: N.N.O=C([O-])C1(C(=O)[O-])CCC1.[Pt+2] [carboplatin]
IC50 for carboplatin after dehydroequol pre-treatment ([1]; pre-treatment with dehydroequol (10 μg/ml) for two hours, +/−0.5 (FIG. 3)): 0.5 µg/mL
decrease in cell viability ([2]; pre-treatment (2 h) with DHE followed by the agent for 48 h): 30%

Compound: Oc1ccc(C2=Cc3ccc(O)cc3OC2)cc1 [dehydroequol]
Caspase 3 activation (caspase 3): Caspase 3 activation was observed
decrease in cell viability ([2]; pre-treatment alone for 2 h): 20%
decrease in cell viability ([2]; treatment for 48 hours): 60-80%
IC50 (HPAC; Homo sapiens): 50000 nM
IC50 (DU145; Homo sapiens, DU-145): 5900 nM
IC50 (A2780; Homo sapiens, A2780): 1700 nM
IC50 (PC3; Homo sapiens, PC-3): 9600 nM
IC50 (CP70 [3]): 1500 nM

IC50 ([1]; Homo sapiens, A2780, pre-treatment with dehydroequol (10 μg/ml) for two hours (FIG. 4), read-out: IC50 for paclitaxel after dehydroequol pre-treatment): 50 nM
Compound: CC(=O)O[C@H]1C(=O)[C@@]2(C)[C@H]([C@H](OC(=O)c3ccccc3)[C@]3(O)C[C@H](OC(=O)[C@H](O)[C@@H](NC(=O)c4ccccc4)c4ccccc4)C(C)=C1C3(C)C)[C@]1(OC(C)=O)CO[C@@H]1C[C@@H]2O [paclitaxel]
IC50 [4]: > 2000 nM

Compound: N.N.[Cl][Pt][Cl] [Cisplatin, cis-diamminedichloroplatinum (II)]
effect on tumour size (CP70 [5]): no effect
IC50 (HPAC; co-incubation with 2 uM dehydroequol, read-out: Cisplatin IC50 +2 uM dehydroequol): 7700 nM
IC50 (HPAC; single agent, read-out: IC50): 34500 nM
IC50 (DU145; DU145, co-incubation with 2 uM dehydroequol, read-out: Cisplatin IC50 +2 uM dehydroequol): 100 nM
IC50 (DU145; DU145, single agent, read-out: IC50): 5000 nM
IC50 (A2780; A2780, co-incubation with 2 uM dehydroequol, read-out: Cisplatin IC50 +2 uM dehydroequol): < 1 nM
IC50 (A2780; A2780, single agent, read-out: IC50): 3000 nM
IC50 (PC3; PC3, co-incubation with 2 uM dehydroequol, read-out: Cisplatin IC50 +2 uM dehydroequol): < 1 nM
IC50 (PC3; PC3, single agent, read-out: IC50): 400 nM
IC50 (CP70 [3]; CP70, co-incubation with 2 uM dehydroequol, read-out: Cisplatin IC50 +2 uM dehydroequol): 100 nM
IC50 (CP70 [3]; CP70, single agent, read-out: IC50): 10400 nM
